Experimental data: the supplement of paper PMC10307832

Experiments:
Experiment in all cases: relative viability (nuclei count vs DMSO), 5 days (fraction); higher = more cells survive
[1] = compound: CC1(COc2ccc3c(c2)ncn3-c2ccc3cccc(N4CCC(N)CC4)c3n2)COC1 [Crenolanib] + C[C@]1(O)C[C@@H](c2nc(-c3ccc4ccc(-c5ccccc5)nc4c3)c3c(N)nccn32)C1 [Linsitinib] (partner 1 µM)
In short: (§1)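 Lung cancer cell lines were seeded in 1536-well plates and dosed by pin tool the next day, with either a single drug or a fixed anchor-drug dose combined with five library-drug doses (not always all listed) spaced in √10 steps. Five days later, one step fixed the cells and stained their nuclei (final 0.05% Triton X-100, 1% formaldehyde, 1 ug/ml Hoechst), and nuclei were counted on 4× images. Relative viability is the nuclei count in treated wells divided by the count in vehicle wells, and each value is the median of duplicate plates.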

[2] = compound: CC1(COc2ccc3c(c2)ncn3-c2ccc3cccc(N4CCC(N)CC4)c3n2)COC1 [Crenolanib] + CC(=O)c1c(C)c2cnc(Nc3ccc(N4CCNCC4)cn3)nc2n(C2CCCC2)c1=O [Palbociclib] (partner 0.5 µM)
In short: as §1

[3] = compound: CC1(COc2ccc3c(c2)ncn3-c2ccc3cccc(N4CCC(N)CC4)c3n2)COC1 [Crenolanib] + CC(=O)Nc1cccc(-n2c(=O)n(C3CC3)c(=O)c3c(Nc4ccc(I)cc4F)n(C)c(=O)c(C)c32)c1 [Trametinib] (partner 0.02 µM)
In short: as §1

[4] = compound: CC1(COc2ccc3c(c2)ncn3-c2ccc3cccc(N4CCC(N)CC4)c3n2)COC1 [Crenolanib] + CC1(C)CCC(c2ccc(Cl)cc2)=C(CN2CCN(c3ccc(C(=O)NS(=O)(=O)c4ccc(N[C@H](CCN5CCOCC5)CSc5ccccc5)c(S(=O)(=O)C(F)(F)F)c4)cc3)CC2)C1 [Navitoclax] (partner 0.5 µM)
In short: as §1

NCI-H358
relative viability ([1]; first compound 0.01 µM): 0.819 | relative viability ([1]; first compound 0.03162 µM): 0.682 | relative viability ([1]; first compound 0.1 µM): 0.566 | relative viability ([1]; first compound 0.3162 µM): 0.727 | relative viability ([1]; first compound 1 µM): 0.58 | relative viability ([2]; first compound 0.01 µM): 0.164 | relative viability ([2]; first compound 0.03162 µM): 0.131 | relative viability ([2]; first compound 0.1 µM): 0.136 | relative viability ([2]; first compound 0.3162 µM): 0.135 | relative viability ([2]; first compound 1 µM): 0.125 | relative viability ([3]; first compound 0.01 µM): 0.169 | relative viability ([3]; first compound 0.03162 µM): 0.11 | relative viability ([3]; first compound 0.1 µM): 0.166 | relative viability ([3]; first compound 0.3162 µM): 0.133 | relative viability ([3]; first compound 1 µM): 0.112

NCI-H522
relative viability ([2]; first compound 0.01 µM): 1.15 | relative viability ([2]; first compound 0.03162 µM): 1.06 | relative viability ([2]; first compound 0.1 µM): 0.963 | relative viability ([2]; first compound 0.3162 µM): 0.881 | relative viability ([2]; first compound 1 µM): 0.971 | relative viability ([3]; first compound 0.01 µM): 0.766 | relative viability ([3]; first compound 0.03162 µM): 0.615 | relative viability ([3]; first compound 0.1 µM): 0.841 | relative viability ([3]; first compound 0.3162 µM): 0.631 | relative viability ([3]; first compound 1 µM): 0.638

NCI-H596
relative viability ([1]; first compound 0.01 µM): 1.01 | relative viability ([1]; first compound 0.03162 µM): 0.994 | relative viability ([1]; first compound 0.1 µM): 0.97 | relative viability ([1]; first compound 0.3162 µM): 0.961 | relative viability ([1]; first compound 1 µM): 1.18 | relative viability ([4]; first compound 0.01 µM): 1.02 | relative viability ([4]; first compound 0.03162 µM): 1.04 | relative viability ([4]; first compound 0.1 µM): 0.805 | relative viability ([4]; first compound 0.3162 µM): 0.899 | relative viability ([4]; first compound 1 µM): 0.822 | relative viability ([3]; first compound 0.01 µM): 0.823 | relative viability ([3]; first compound 0.03162 µM): 0.842 | relative viability ([3]; first compound 0.1 µM): 0.753 | relative viability ([3]; first compound 0.3162 µM): 0.729 | relative viability ([3]; first compound 1 µM): 0.75

NCI-H650
relative viability ([1]; first compound 0.01 µM): 1.06 | relative viability ([1]; first compound 0.03162 µM): 0.969 | relative viability ([1]; first compound 0.1 µM): 0.952 | relative viability ([1]; first compound 0.3162 µM): 0.923 | relative viability ([1]; first compound 1 µM): 0.715 | relative viability ([2]; first compound 0.01 µM): 0.308 | relative viability ([2]; first compound 0.03162 µM): 0.346 | relative viability ([2]; first compound 0.1 µM): 0.33 | relative viability ([2]; first compound 0.3162 µM): 0.32 | relative viability ([2]; first compound 1 µM): 0.355 | relative viability ([3]; first compound 0.01 µM): 1.01 | relative viability ([3]; first compound 0.03162 µM): 1.01 | relative viability ([3]; first compound 0.1 µM): 0.976 | relative viability ([3]; first compound 0.3162 µM): 1.05 | relative viability ([3]; first compound 1 µM): 0.992

NCI-H661
relative viability ([1]; first compound 0.01 µM): 0.628 | relative viability ([1]; first compound 0.03162 µM): 0.527 | relative viability ([1]; first compound 0.1 µM): 0.499 | relative viability ([1]; first compound 0.3162 µM): 0.544 | relative viability ([1]; first compound 1 µM): 0.497 | relative viability ([2]; first compound 0.01 µM): 0.433 | relative viability ([2]; first compound 0.03162 µM): 0.416 | relative viability ([2]; first compound 0.1 µM): 0.424 | relative viability ([2]; first compound 0.3162 µM): 0.408 | relative viability ([2]; first compound 1 µM): 0.43 | relative viability ([3]; first compound 0.01 µM): 0.57 | relative viability ([3]; first compound 0.03162 µM): 0.55 | relative viability ([3]; first compound 0.1 µM): 0.528 | relative viability ([3]; first compound 0.3162 µM): 0.603 | relative viability ([3]; first compound 1 µM): 0.494

NCI-H1299
relative viability ([1]; first compound 0.01 µM): 0.995 | relative viability ([1]; first compound 0.03162 µM): 0.912 | relative viability ([1]; first compound 0.1 µM): 0.946 | relative viability ([1]; first compound 0.3162 µM): 1.01 | relative viability ([1]; first compound 1 µM): 0.958 | relative viability ([4]; first compound 0.01 µM): 1.04 | relative viability ([4]; first compound 0.03162 µM): 1.04 | relative viability ([4]; first compound 0.1 µM): 0.987 | relative viability ([4]; first compound 0.3162 µM): 1.08 | relative viability ([4]; first compound 1 µM): 1.06

NCI-H1563
relative viability ([1]; first compound 0.01 µM): 1.12 | relative viability ([1]; first compound 0.03162 µM): 1.3 | relative viability ([1]; first compound 0.1 µM): 1.18 | relative viability ([1]; first compound 0.3162 µM): 1.23 | relative viability ([1]; first compound 1 µM): 1.06

NCI-H1648
relative viability ([2]; first compound 0.01 µM): 0.254 | relative viability ([2]; first compound 0.1 µM): 0.262 | relative viability ([2]; first compound 0.3162 µM): 0.29 | relative viability ([2]; first compound 1 µM): 0.267 | relative viability ([3]; first compound 0.01 µM): 0.541 | relative viability ([3]; first compound 0.1 µM): 0.469 | relative viability ([3]; first compound 0.3162 µM): 0.457 | relative viability ([3]; first compound 1 µM): 0.514

NCI-H1650
relative viability ([2]; first compound 0.01 µM): 0.397 | relative viability ([2]; first compound 0.03162 µM): 0.281 | relative viability ([2]; first compound 0.1 µM): 0.324 | relative viability ([2]; first compound 0.3162 µM): 0.308 | relative viability ([2]; first compound 1 µM): 0.387 | relative viability ([4]; first compound 0.01 µM): 1.22 | relative viability ([4]; first compound 0.03162 µM): 1.13 | relative viability ([4]; first compound 0.1 µM): 1.14 | relative viability ([4]; first compound 0.3162 µM): 1.6 | relative viability ([4]; first compound 1 µM): 1.34 | relative viability ([3]; first compound 0.01 µM): 0.715 | relative viability ([3]; first compound 0.03162 µM): 0.534 | relative viability ([3]; first compound 0.1 µM): 0.521 | relative viability ([3]; first compound 0.3162 µM): 0.747 | relative viability ([3]; first compound 1 µM): 0.575

NCI-H1703
relative viability ([1]; first compound 0.01 µM): 0.566 | relative viability ([1]; first compound 0.03162 µM): 0.645 | relative viability ([1]; first compound 0.1 µM): 0.574 | relative viability ([1]; first compound 0.3162 µM): 0.285 | relative viability ([1]; first compound 1 µM): 0.154 | relative viability ([4]; first compound 0.01 µM): 1 | relative viability ([4]; first compound 0.03162 µM): 0.657 | relative viability ([4]; first compound 0.1 µM): 0.286 | relative viability ([4]; first compound 0.3162 µM): 0.254 | relative viability ([4]; first compound 1 µM): 0.198

NCI-H2170
relative viability ([2]; first compound 0.01 µM): 0.384 | relative viability ([2]; first compound 0.03162 µM): 0.432 | relative viability ([2]; first compound 0.1 µM): 0.38 | relative viability ([2]; first compound 0.3162 µM): 0.422 | relative viability ([2]; first compound 1 µM): 0.417 | relative viability ([4]; first compound 0.01 µM): 0.612 | relative viability ([4]; first compound 0.03162 µM): 0.549 | relative viability ([4]; first compound 0.1 µM): 0.65 | relative viability ([4]; first compound 0.3162 µM): 0.665 | relative viability ([4]; first compound 1 µM): 0.579 | relative viability ([3]; first compound 0.01 µM): 0.945 | relative viability ([3]; first compound 0.03162 µM): 0.93 | relative viability ([3]; first compound 0.1 µM): 0.928 | relative viability ([3]; first compound 0.3162 µM): 0.9 | relative viability ([3]; first compound 1 µM): 0.927

NCI-H2342
relative viability ([2]; first compound 0.01 µM): 0.521 | relative viability ([2]; first compound 0.03162 µM): 0.545 | relative viability ([2]; first compound 0.1 µM): 0.574 | relative viability ([2]; first compound 0.3162 µM): 0.533 | relative viability ([2]; first compound 1 µM): 0.598 | relative viability ([3]; first compound 0.01 µM): 0.502 | relative viability ([3]; first compound 0.03162 µM): 0.822 | relative viability ([3]; first compound 0.1 µM): 0.935 | relative viability ([3]; first compound 0.3162 µM): 0.887 | relative viability ([3]; first compound 1 µM): 0.904

SW 900
relative viability ([2]; first compound 0.01 µM): 0.591 | relative viability ([2]; first compound 0.1 µM): 0.449 | relative viability ([2]; first compound 0.3162 µM): 0.523 | relative viability ([2]; first compound 1 µM): 0.554 | relative viability ([3]; first compound 0.01 µM): 0.797 | relative viability ([3]; first compound 0.1 µM): 0.75 | relative viability ([3]; first compound 0.3162 µM): 0.784 | relative viability ([3]; first compound 1 µM): 1.18
